{"source": "paper PMC6721824", "about": "“IGFs Potentiate TAC3-induced SLα Expression via Upregulation of TACR3 Expression in Grass Carp Pituitary Cells” (Cells, 2019)", "key": {"[1]": {"tested_on": "SLα mRNA expression in grass carp pituitary cells", "assay": "SLα mRNA expression (qPCR) in grass carp pituitary cells", "format": "cell-based, grass carp (Ctenopharyngodon idellus)", "conditions": "senktide 1 µM, IGF-I/-II 100 nM (Figure 4E)", "method": "Grass carp pituitary cells prepared by the trypsin/DNase digestion method were seeded in 24-well plates at ~2.5 × 10^6 cells/mL/well. On the following day, drug treatment was initiated by replacing the old medium with a testing medium with the appropriate levels of test substances, and the cells were then allowed to incubate at 28 °C for the duration as indicated. After drug treatment, total RNA was extracted from individual wells and reversely transcribed as above. The RT samples obtained were subjected to qPCR using a LightCycler SYBR Green I Kit (Roche, Stockholm, Sweden) with the primers mentioned above. In these studies, serial dilutions of plasmid DNA containing the ORF of SLα (GeneBank no.: EF372074) and TACR3 (GenBank no: JQ254913) cDNA were used as the standards for data calibration. Parallel real-time PCR measurement of β-actin was also conducted in individual experiments to serve as the internal control.\nFor real-time PCR of SLα and TACR3 mRNA measurement, standard curves with a dynamic range of ≥10^5 and correlation coefficient of ≥0.95 were used for data calibration with the RotorGene-Q software 1.7 (Qiagen) under unsupervised mode. SLα and TACR3 mRNA data were normalized with the β-actin transcript level and then were transformed as a percentage of the mean value in the control group without drug treatment (as “%Ctrl”). For the calcium bioluminescence signals and raw data obtained from luciferase reporter assays, the luminescence signals or luciferase activity was expressed as “relative luminescence unit (RLU)” registered by the fluorescence plate reader. For individual samples of the luciferase reporter assay, the firefly luciferase activity detected was routinely normalized against Renilla Luciferase activity expressed in the same well and expressed as the luciferase activity ration (as “Luc Ratio”). For receptor binding assay, specific binding of FAM-NKBa was measured in terms of “Arbitrary Fluorescence Unit (AFU)”. The six replicates presented (expressed as Mean ± SEM) were pooled results from two individual experiments prior to statistical analysis; all data were tested for normality of distribution using the Shapiro–Wilk normality test. Then, one-way ANOVA and two-way ANOVA were used to test the significant difference according to different experiment groups. The differences between groups were considered as significant at P < 0.05 (“*”) or highly significant at P < 0.01 (“**”)."}, "ERK1/2": {"tested_on": "ERK1/2", "assay": "Western blot for signaling kinases: ERK1/2 phosphorylation", "format": "cell-based, grass carp (Ctenopharyngodon idellus)", "conditions": "grass carp pituitary cells, senktide (1 µM) + IGF-I (50 nM), 15 min", "method": "(§1) The pituitary cells derived from twenty grass carp pituitaries were seeded in 24-well culture plates at a density of 2.5 × 10^6 cells/mL/well and incubated with drug treatment for the duration as indicated in the individual experiments. […] After drug treatment, the culture medium from individual wells was removed and the remaining cells were rinsed with PBS and lysed in RIPA buffer (50 mM Tris^·HCl, 150 mM NaCl, 1 mM EDTA, 1% NP-40, and 0.25% Na deoxycholate), containing a final concentration of 1×protease/phosphatase inhibitor cocktail (Roche). The cell lysate was cleared by high-speed centrifugation at 4 °C, the clear supernatant was resolved in 10% gel by SDS-PAGE, and Western blotting was conducted according to the procedures as previously described. The antibodies that can be detected, the phosphorylated and total ERK1/2 (1:5,000), MEK1/2 (1:1,000), p38 MAPK (1:1,000), and Akt (1:1,000), were used at the dilutions recommended by the manufactures. […] Chemiluminescence signals for target immune-reactivity were detected using SuperSignal West Pico (PIERCE, Rockford, IL, USA) as the substrate and quantified using the IC440 CF Digital Science Image Station (Eastman Kodak, Rochester, NY, USA). […]"}, "grass carp TACR3 [2]": {"molecular_target": "T1, grass carp TACR3 (Ctenopharyngodon idella, UniProt A0A075BDW2)", "T1 sequence (A0A075BDW2 1-395)": "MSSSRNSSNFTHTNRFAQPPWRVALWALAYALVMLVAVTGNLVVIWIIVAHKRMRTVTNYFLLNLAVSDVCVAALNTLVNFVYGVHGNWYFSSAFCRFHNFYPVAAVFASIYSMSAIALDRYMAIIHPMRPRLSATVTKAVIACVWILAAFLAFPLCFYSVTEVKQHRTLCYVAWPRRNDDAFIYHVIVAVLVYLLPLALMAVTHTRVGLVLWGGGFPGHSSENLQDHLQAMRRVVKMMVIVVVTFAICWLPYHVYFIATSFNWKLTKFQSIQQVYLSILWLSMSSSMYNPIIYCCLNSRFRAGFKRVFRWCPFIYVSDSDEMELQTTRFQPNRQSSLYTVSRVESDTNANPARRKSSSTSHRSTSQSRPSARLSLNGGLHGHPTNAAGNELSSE", "assay": "Fluorescence-based receptor binding assay, displacement of FAM-NKBa tracer", "set-up": "species or system grass carp (Ctenopharyngodon idellus)", "conditions": "HEK-293 cells with stable expression of grass carp TACR3, 30 min pretreatment with competitor (0.1–1000 nM), then FAM-NKBa (10 nM) 30 min, 37 °C, fluorescence 490/520 nm; read-out: IC50 for displacing FAM-NKBa binding", "protocol": "The cells were then harvested and seeded onto 24-well plates at a density of 0.1 million/well and incubated at 37 °C under 5% CO2 for 24 h prior to the experiments. On the day of the experiments, the culture medium was aspirated and replaced with 500 μL serum-free DMEM with or without appropriated levels of unlabeled competitors. Cells were then allowed to incubate for 30 min at 37 °C under 5% CO2 and saturated humidity. FAM Carboxyfluorescein-labeled NKBa, namely FAM-NKBa, was used as a tracer for receptor binding experiments, and a 50-μL volume of FAM-NKBa (10 nM) was added into individual wells. After further incubation for 30 min at 37 °C, the cells were washed twice and with 500 μl PBS each to remove unbound ligands. […] The supernatant from individual wells was then collected in a 96-wells black view plate, and fluorescence signals indicative of FAM-NKBa binding were registered using FluoStar OPTIMA with excitation at 490 nm and emission at 520 nm.\nFor receptor binding assay, specific binding of FAM-NKBa was measured in terms of “Arbitrary Fluorescence Unit (AFU)”. The six replicates presented (expressed as Mean ± SEM) were pooled results from two individual experiments prior to statistical analysis; all data were tested for normality of distribution using the Shapiro–Wilk normality test. […]"}, "MEK1/2": {"tested_on": "MEK1/2", "assay": "Western blot for signaling kinases: MEK1/2 phosphorylation", "format": "cell-based, grass carp (Ctenopharyngodon idellus)", "conditions": "grass carp pituitary cells, senktide (1 µM) + IGF-I (50 nM), 15 min", "method": "as §1"}, "grass carp TACR3 [3]": {"molecular_target": "T1, grass carp TACR3", "assay": "CRE-Luc luciferase reporter (cAMP pathway) in HEK-293 cells with stable expression of grass carp TACR3", "format": "cell-based, grass carp (Ctenopharyngodon idellus)", "conditions": "SEM", "protocol": "To clarify the ligand selectivity and signal transduction pathways of TACR3, functional expression of grass carp TACR3 was performed in HEK-293 cells with co-transfection of luciferase-expressing reporters targeting different signaling pathways provided by the Clontech Cell Signaling Profiling Kit (Clontech, Mountain View, CA, USA), including cAMP response element (CRE)-Luc (for cAMP pathway), activator protein-1 (AP1)-Luc (for PKC pathway), nuclear factor of activated T-cells (NFAT)-Luc (for Ca^2+/calcineurin pathway), and serum responsive element (SRE)-Luc (for MAPK pathway) [29]. […]\nFor the calcium bioluminescence signals and raw data obtained from luciferase reporter assays, the luminescence signals or luciferase activity was expressed as “relative luminescence unit (RLU)” registered by the fluorescence plate reader. For individual samples of the luciferase reporter assay, the firefly luciferase activity detected was routinely normalized against Renilla Luciferase activity expressed in the same well and expressed as the luciferase activity ration (as “Luc Ratio”). […] The six replicates presented (expressed as Mean ± SEM) were pooled results from two individual experiments prior to statistical analysis; all data were tested for normality of distribution using the Shapiro–Wilk normality test. […]"}, "Akt": {"tested_on": "Akt", "assay": "Western blot for signaling kinases: Akt phosphorylation", "format": "cell-based, grass carp (Ctenopharyngodon idellus)", "conditions": "grass carp pituitary cells, senktide (1 µM) + IGF-I (50 nM), 15 min", "method": "as §1"}, "p38MAPK": {"tested_on": "p38MAPK", "assay": "Western blot for signaling kinases: p38MAPK phosphorylation", "format": "cell-based, grass carp (Ctenopharyngodon idellus)", "conditions": "grass carp pituitary cells, senktide (1 µM) + IGF-I (50 nM), 15 min", "method": "as §1"}}, "note": "Peptide text beside a SMILES is read from it.", "data": [{"compound": "CSCC[C@H](NC(=O)[C@H](CC(C)C)NC(=O)CNC(=O)[C@H](Cc1ccccc1)N(C)C(=O)[C@H](Cc1ccccc1)NC(=O)[C@H](CC(=O)O)NC(=O)CCC(=O)O)C(N)=O", "note": "[senktide] (HELM PEPTIDE1{[O=C(O)CCC(=O)[*:2]].D.F.[meF].G.L.M.[am]}$$$$V2.0; N-terminus and C-terminus assumed)", "values": [{"measurement": "SLα mRNA expression on cotreatment of TACR3 agonist with IGF-I or IGF-II", "setting": "[1]", "result": "mimic the synergistic effects"}, {"measurement": "effect of cotreatment on IGF-I-induced protein phosphorylation of ERK1/2", "setting": "ERK1/2", "result": "did not alter"}, {"measurement": "IC50", "setting": "grass carp TACR3 [2]", "result": "71.2 ± 9.23", "unit": "nM"}, {"measurement": "effect of cotreatment on IGF-I-induced protein phosphorylation of MEK1/2", "setting": "MEK1/2", "result": "did not alter"}, {"measurement": "EC50", "setting": "grass carp TACR3 [3]", "result": "21.3 ± 3.2", "unit": "nM"}, {"measurement": "effect of cotreatment on IGF-I-induced protein phosphorylation of Akt", "setting": "Akt", "result": "noticeable potentiating effect"}, {"measurement": "effect of cotreatment on IGF-I-induced protein phosphorylation of p38MAPK", "setting": "p38MAPK", "result": "did not alter"}]}]}
